# Reference: paper PMC11091220, “Metabolism-driven in vitro/in vivo disconnect of an oral ERɑ VHL-PROTAC” (Communications Biology, 2024)
# Experiments:
# ER-regulated genes = assay: Gene expression analysis of ER-regulated genes (qPCR), MCF7 and CAMA1 cells; format: cell-based; conditions: 100 nM, 0.1 nM estradiol, 24 hours
# Method: MCF7 and CAMA1 cells were plated at 1.2 x 10^6 cells/well into 6-well TC-treated plates in phenol red-free RPMI containing 5% charcoal-stripped FBS (F6765, Sigma) and treated with 0.1 nM estradiol in the presence of 100 nM fulvestrant, 100 nM AZD9833, 100 nM AZ’6421 or DMSO control for 24 hours. A non-estradiol-treated control was also included with 3 biological replicates per condition. Samples were harvested in 1 mL of QIAzol Lysis Buffer and snap-frozen. RNA was extracted using the RNeasy 96 QIAcube HT total RNA Cell with DNAse treatment following manufacturer instructions. Samples were randomized over 96-well plates. RNA concentration was quantified using the Qubit RNA BR kit (# Q10213 Invitrogen) and RNA integrity was analyzed on a bioanalyzer using the RNA 6000 Nano Kit (# 5067-1511-Agilent) following the manufacturer’s instructions. Targeted gene expression was performed using a 48 × 48 or 96 × 96 Fluidigm dynamic array (Fluidigm, San Francisco CA, USA) and Taqman primers (Thermo Scientific, Waltham, MA). […] The Fluidigm Array was then primed and loaded on an IFC Controller and quantitative PCR (qPCR) experiments were run on the Biomark System, using the standard Default_10 min_HotStart protocol or M96_default protocol for 48 × 48 or 96 × 96 chips, respectively. Data were collected and analysed using the Fluidigm Real-Time PCR Analysis software to generate the Ct values. […]
# ERα = target: T1, ERα (Homo sapiens, UniProt P03372); assay: CRISPR VHL knock out, ERα imaging in MCF7 Cas9 cells; format: cell-based; conditions: MCF7 Cas9, 24 h
# T1 construct: endogenous in cells; host or cells: MCF7 (also MCF7 engineered to express Cas9)
# T1 sequence (P03372 1-595): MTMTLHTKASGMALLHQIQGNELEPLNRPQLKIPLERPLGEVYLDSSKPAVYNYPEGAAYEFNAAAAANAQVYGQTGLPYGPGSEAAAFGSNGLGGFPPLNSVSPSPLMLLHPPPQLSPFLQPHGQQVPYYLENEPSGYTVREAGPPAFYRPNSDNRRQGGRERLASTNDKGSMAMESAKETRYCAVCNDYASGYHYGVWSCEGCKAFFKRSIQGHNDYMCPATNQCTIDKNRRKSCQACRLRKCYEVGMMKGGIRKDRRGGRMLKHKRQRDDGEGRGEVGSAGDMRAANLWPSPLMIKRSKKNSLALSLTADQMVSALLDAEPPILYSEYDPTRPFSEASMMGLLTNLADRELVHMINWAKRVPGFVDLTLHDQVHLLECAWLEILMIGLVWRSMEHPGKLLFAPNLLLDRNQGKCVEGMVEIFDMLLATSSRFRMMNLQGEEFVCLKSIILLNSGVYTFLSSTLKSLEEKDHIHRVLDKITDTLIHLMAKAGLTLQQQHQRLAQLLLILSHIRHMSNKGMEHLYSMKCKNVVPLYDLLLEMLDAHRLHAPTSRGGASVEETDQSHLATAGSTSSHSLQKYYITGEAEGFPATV
# Method: Chemically synthesised Edit-R crRNAs targeting VHL and ESR1 were purchased from Horizon Discovery (Cambridge, UK). Equal volumes of 4 crRNAs targeting each individual gene were pooled and then duplexed at a 1:1 ratio in 10 mM Tris pH7.4 buffer with tracrRNA (Horizon, U-002000-50) at room temperature. MCF7 cells were engineered to express cas9 under TetON promotor from the endogenous AAVS1 locus as described previously. Doxycycline-inducible Cas9 is linked via the cleavable T2A peptide to BFP enabling the identification of Cas9-positive cells by microscopy. MCF7 cas9 cells were cultured in RPMI phenol red free (Sigma) supplemented with 10% FBS and 1X GlutaMax (both Gibco). 72 h prior to reverse transfection, cas9 expression was induced by the addition 15 ng/mL doxycycline (Sigma) to the growth media.
# MCF7 cells were reverse transfected with the crRNA:tracrRNA pools at 25 nM final concentration using Lipofectamine® RNAiMAX transfection reagent (Thermo Fisher): First crRNA:tracrRNA pools were dispensed into 384-well assay plates (Greiner, 781090), and incubated with 10 µL serum-free DMEM (Sigma) supplemented with 1% Lipofectamine RNAiMAX for 20 minutes at room temperature. […] Following image acquisition, analysis was completed using the Columbus Image Analysis platform (Perkin Elmer) to quantify ESR1 levels in cas9-positive cells. […]
compound,measurement,setting,value
Cc1ncsc1-c1ccc(CNC(=O)[C@@H]2C[C@@H](O)CN2C(=O)[C@@H](NC(=O)COCCCOCCCOc2cc(F)c([C@@H]3c4[nH]c5ccccc5c4C[C@@H](C)N3CC(C)(C)F)c(F)c2)C(C)(C)C)cc1 [Compound 5],expression of ER-regulated genes,ER-regulated genes,effectively supressed the expression of a range of ER-regulated genes
same,effect of VHL knockout on ER degradation,ERα,partially reduced
